From the NIST ThermoML archive (doi:10.1016/j.jct.2018.08.021)
± gives the expanded uncertainty stated by the source.

Assay: osmotic coefficient (dimensionless); mn = molality of the nth substance listed, in mol/kg
Conditions: 303.15 K, 101.3 kPa, Liquid, Vapor-pressure osmometry (Knauer K-7000)

osmotic coefficient (m1 = 0.0476): 0.809 ± 0.064
osmotic coefficient (m1 = 0.0572): 0.804 ± 0.065
osmotic coefficient (m1 = 0.0765): 0.771 ± 0.066
osmotic coefficient (m1 = 0.0951): 0.73 ± 0.067
SMILES: NC(=O)c1ccc[n+]([C@@H]2O[C@H](COP(=O)([O-])OP(=O)(O)OC[C@H]3O[C@@H](n4cnc5c(N)ncnc54)[C@H](O)[C@@H]3O)[C@@H](O)[C@H]2O)c1 [β-nicotinamide adenine dinucleotide] + O
